One test concerns T1, Octopus GST-σ.
T1 construct: gene GST-sigma
The test is described as follows: GSH-CDNB conjugation, absorbance […] nm. It counts as biochemical, Octopus vulgaris. The note with it: GSH 10 mM; apparent; read-out: Km,CDNB (mM) ^c.

In test [1] the target is Wild-type S-crystallin (OctS4) of Octopus vulgaris (Octopus vulgaris). The test is described as follows: AUC; sedimentation velocity, 20 °C, 42,000 rpm, protein 0.025–1.0 mg/ml in 50 mM phosphate, pH 6.5; continuous c(M) distribution by SEDFIT.

Among the data in article PMC4976375, “Structure of a Highly Active Cephalopod S-crystallin Mutant: New Molecular Evidence for Evolution from an Active Enzyme into Lens-Refractive Protein” (Scientific Reports, 2016) are Km and stoichiometry N values, retold here.

For `O=[N+]([O-])c1ccc(Cl)c([N+](=O)[O-])c1` [CDNB, 1-chloro-2,4-dinitrobenzene], the Km with Octopus GST-σ came to 0.47 ± 0.04 mM. “Wild-type S-crystallin (OctS4) of Octopus vulgaris (natural protein)” gave a stoichiometry N in test [1] of 2.
